Experimental data published in ChEMBL document CHEMBL4130538, “Discovery of novel anti-angiogenesis agents. Part 7: Multitarget inhibitors of VEGFR-2, TIE-2 and EphB4” (Eur J Med Chem, 2017).
pIC50: −log10 of the molar value.

Columns and labels:
Angiopoietin-1 receptor = Angiopoietin-1 receptor (Homo sapiens, UniProt Q02763); assay: Inhibition of TIE-2 (unknown origin) after 4 hrs by ADP-Glo luminescence assay
[1] = target: Hepatocyte growth factor receptor (Homo sapiens, UniProt P08581); assay: Inhibition of cMET (unknown origin)
[2] = target: Fibroblast growth factor receptor 4 (Homo sapiens, UniProt P22455); assay: Inhibition of FGFR-4 (unknown origin)
[3] = target: Platelet-derived growth factor receptor beta (Homo sapiens, UniProt P09619); assay: Inhibition of PDGFRbeta (unknown origin)
[4] = target: Insulin-like growth factor 1 receptor (Homo sapiens, UniProt P08069); assay: Inhibition of IGF1-R (unknown origin)
[5] = target: Epidermal growth factor receptor (Homo sapiens, UniProt P00533); assay: Inhibition of EGFR (unknown origin)
[6] = target: Fibroblast growth factor receptor 1 (Homo sapiens, UniProt P11362); assay: Inhibition of FGFR-1 (unknown origin)
[7] = target: Vascular endothelial growth factor receptor 3 (Homo sapiens, UniProt P35916); assay: Inhibition of VEGFR-3 (unknown origin)
[8] = target: Vascular endothelial growth factor receptor 1 (Homo sapiens, UniProt P17948); assay: Inhibition of VEGFR-1 (unknown origin)
[9] = target: Mast/stem cell growth factor receptor Kit (Homo sapiens, UniProt P10721); assay: Inhibition of cKIT (unknown origin)
[10] = target: Serine/threonine-protein kinase B-raf (Homo sapiens, UniProt P15056); assay: Inhibition of BRAF (unknown origin)
[11] = target: Vascular endothelial growth factor receptor 2 (Homo sapiens, UniProt P35968); assay: Inhibition of VEGFR-2 (unknown origin) after 60 mins by ADP-Glo luminescence assay
EA.hy 926 = assay: Anti-angiogenic activity in human EAhy926 cells as growth inhibition after 24 hrs by CCK-8 assay; format: cell-based; settings: EA.hy 926, 24 h
Ephrin type-B receptor 4 = target: T1, Ephrin type-B receptor 4 (Homo sapiens, UniProt P54760); assay: Inhibition of EphB4 (unknown origin) after 4 hrs by ADP-Glo luminescence assay
T1 sequence (P54760 whole entry): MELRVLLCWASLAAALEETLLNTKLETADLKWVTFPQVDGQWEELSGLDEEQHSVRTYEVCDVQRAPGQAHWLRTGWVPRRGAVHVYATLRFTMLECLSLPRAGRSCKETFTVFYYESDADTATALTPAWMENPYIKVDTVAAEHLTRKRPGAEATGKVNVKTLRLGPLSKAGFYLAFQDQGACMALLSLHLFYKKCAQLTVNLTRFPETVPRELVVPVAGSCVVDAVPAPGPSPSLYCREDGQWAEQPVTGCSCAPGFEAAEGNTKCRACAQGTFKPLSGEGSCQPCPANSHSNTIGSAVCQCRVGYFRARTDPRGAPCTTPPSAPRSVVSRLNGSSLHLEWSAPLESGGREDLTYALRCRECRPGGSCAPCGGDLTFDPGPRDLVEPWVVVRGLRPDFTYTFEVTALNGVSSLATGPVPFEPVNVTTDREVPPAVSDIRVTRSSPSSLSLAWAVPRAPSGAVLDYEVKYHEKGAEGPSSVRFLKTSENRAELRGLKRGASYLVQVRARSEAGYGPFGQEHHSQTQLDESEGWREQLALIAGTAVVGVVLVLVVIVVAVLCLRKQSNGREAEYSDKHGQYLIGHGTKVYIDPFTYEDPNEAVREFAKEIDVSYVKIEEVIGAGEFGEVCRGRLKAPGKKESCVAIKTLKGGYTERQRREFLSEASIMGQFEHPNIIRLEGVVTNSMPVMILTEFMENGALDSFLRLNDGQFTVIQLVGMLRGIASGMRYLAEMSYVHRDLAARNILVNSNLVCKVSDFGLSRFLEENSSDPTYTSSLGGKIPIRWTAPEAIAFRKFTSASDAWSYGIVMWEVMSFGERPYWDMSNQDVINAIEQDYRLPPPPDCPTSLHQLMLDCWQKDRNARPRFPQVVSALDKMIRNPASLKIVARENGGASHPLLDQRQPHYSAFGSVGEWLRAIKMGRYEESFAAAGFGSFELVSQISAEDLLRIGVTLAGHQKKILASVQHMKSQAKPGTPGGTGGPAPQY

Sequence of Angiopoietin-1 receptor (Q02763 whole entry): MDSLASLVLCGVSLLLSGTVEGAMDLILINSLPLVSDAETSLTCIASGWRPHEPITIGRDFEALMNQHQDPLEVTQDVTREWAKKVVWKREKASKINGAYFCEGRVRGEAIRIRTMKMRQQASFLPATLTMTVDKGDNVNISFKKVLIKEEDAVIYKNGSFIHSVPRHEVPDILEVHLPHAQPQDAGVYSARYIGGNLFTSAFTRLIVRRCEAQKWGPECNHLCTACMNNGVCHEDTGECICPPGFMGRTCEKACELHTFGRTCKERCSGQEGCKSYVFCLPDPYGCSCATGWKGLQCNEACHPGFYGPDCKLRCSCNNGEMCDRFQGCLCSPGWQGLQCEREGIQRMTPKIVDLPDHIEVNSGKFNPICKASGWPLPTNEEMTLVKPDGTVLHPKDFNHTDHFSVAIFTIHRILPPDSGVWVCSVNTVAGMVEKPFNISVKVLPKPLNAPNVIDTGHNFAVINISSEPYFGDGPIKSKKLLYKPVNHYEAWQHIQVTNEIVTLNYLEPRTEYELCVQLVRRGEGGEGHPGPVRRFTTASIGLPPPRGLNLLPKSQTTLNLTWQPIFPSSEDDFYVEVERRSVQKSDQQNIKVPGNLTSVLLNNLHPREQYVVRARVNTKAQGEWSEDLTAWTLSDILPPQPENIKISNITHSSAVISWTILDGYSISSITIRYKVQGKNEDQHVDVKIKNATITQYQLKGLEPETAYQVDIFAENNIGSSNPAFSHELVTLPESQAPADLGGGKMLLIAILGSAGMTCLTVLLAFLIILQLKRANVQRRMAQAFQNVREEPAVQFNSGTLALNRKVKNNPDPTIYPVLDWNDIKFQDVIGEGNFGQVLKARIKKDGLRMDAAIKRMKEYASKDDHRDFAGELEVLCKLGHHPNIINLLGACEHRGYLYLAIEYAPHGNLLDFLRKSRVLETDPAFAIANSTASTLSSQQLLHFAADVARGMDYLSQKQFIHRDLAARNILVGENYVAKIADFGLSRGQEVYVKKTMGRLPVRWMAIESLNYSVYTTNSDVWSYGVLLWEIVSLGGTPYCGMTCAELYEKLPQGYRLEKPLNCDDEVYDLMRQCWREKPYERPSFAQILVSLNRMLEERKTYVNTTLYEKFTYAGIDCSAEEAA
Sequence of Vascular endothelial growth factor receptor 2 (P35968 whole entry): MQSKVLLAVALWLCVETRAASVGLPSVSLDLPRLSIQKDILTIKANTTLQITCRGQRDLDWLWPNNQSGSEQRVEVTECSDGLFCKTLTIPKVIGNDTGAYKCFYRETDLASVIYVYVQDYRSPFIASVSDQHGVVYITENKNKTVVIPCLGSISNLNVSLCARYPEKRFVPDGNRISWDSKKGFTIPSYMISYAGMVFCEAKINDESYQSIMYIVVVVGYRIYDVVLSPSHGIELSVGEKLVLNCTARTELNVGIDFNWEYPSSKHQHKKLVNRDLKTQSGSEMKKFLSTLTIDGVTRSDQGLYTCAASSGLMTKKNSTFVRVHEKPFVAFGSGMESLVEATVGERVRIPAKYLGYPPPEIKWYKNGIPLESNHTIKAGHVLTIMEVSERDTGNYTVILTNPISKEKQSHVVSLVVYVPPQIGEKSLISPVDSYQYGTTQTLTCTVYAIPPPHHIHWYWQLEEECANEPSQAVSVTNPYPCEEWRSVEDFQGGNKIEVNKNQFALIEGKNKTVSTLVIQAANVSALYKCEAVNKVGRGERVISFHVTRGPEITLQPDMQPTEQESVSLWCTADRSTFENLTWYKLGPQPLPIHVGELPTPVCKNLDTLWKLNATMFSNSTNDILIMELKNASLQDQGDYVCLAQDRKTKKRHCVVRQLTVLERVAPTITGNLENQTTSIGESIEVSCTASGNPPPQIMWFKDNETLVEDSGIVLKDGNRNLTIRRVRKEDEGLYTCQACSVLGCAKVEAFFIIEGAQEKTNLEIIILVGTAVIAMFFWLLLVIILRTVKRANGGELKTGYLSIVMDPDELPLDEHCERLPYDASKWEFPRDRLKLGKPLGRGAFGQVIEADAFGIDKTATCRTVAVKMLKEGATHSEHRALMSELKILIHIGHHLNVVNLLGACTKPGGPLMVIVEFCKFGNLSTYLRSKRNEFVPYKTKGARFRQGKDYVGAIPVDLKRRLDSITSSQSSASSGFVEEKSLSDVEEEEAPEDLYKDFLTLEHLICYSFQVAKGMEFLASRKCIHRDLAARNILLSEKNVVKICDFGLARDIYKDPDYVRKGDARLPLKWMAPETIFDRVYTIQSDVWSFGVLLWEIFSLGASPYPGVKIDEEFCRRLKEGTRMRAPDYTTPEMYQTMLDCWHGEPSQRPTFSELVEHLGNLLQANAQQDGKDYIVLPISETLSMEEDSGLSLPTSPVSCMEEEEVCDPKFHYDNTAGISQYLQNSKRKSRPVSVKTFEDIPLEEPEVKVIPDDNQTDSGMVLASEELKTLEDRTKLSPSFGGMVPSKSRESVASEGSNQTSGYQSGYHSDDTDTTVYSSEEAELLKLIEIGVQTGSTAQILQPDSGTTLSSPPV
Sequence of Fibroblast growth factor receptor 4 (P22455 whole entry): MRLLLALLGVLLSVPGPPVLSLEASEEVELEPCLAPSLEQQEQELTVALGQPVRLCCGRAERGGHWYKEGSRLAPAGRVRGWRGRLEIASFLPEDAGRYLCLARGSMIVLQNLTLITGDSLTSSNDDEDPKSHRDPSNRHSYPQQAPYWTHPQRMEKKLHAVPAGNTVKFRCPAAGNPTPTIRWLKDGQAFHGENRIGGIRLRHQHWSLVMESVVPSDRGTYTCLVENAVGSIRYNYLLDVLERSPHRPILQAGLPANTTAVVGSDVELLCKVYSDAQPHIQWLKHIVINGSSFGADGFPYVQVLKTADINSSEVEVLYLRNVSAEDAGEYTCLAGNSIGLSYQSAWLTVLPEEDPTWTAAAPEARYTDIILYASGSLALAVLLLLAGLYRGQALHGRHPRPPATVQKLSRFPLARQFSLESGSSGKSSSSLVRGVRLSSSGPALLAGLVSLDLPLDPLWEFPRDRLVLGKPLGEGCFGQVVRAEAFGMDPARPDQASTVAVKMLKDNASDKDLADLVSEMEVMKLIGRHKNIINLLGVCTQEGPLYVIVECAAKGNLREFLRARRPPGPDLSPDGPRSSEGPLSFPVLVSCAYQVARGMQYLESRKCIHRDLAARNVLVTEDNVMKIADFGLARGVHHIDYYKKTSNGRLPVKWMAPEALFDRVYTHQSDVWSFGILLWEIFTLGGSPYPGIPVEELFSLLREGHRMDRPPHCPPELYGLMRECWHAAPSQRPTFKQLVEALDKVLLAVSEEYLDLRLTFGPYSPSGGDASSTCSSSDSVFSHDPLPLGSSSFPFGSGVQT
Sequence of Serine/threonine-protein kinase B-raf (P15056 whole entry): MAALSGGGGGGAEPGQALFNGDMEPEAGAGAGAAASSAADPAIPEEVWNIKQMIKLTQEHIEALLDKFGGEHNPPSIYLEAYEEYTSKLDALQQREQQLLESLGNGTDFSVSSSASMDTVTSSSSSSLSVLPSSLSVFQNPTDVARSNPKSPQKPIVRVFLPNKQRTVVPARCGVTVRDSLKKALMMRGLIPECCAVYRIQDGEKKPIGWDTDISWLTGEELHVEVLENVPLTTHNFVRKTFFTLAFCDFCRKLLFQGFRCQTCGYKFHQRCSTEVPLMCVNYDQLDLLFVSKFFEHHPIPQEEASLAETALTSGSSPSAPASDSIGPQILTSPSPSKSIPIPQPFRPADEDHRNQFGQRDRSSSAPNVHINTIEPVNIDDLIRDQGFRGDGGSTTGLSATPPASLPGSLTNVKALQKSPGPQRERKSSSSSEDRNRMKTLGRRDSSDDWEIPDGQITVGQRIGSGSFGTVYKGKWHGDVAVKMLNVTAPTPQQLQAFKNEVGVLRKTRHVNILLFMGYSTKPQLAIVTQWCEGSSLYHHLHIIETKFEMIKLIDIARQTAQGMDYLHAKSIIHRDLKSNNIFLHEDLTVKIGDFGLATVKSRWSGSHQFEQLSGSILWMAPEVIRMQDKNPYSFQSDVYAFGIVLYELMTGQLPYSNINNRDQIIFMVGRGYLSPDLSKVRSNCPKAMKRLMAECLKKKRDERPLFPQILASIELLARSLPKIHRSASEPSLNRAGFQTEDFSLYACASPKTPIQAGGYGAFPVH
Sequence of Mast/stem cell growth factor receptor Kit (P10721 whole entry): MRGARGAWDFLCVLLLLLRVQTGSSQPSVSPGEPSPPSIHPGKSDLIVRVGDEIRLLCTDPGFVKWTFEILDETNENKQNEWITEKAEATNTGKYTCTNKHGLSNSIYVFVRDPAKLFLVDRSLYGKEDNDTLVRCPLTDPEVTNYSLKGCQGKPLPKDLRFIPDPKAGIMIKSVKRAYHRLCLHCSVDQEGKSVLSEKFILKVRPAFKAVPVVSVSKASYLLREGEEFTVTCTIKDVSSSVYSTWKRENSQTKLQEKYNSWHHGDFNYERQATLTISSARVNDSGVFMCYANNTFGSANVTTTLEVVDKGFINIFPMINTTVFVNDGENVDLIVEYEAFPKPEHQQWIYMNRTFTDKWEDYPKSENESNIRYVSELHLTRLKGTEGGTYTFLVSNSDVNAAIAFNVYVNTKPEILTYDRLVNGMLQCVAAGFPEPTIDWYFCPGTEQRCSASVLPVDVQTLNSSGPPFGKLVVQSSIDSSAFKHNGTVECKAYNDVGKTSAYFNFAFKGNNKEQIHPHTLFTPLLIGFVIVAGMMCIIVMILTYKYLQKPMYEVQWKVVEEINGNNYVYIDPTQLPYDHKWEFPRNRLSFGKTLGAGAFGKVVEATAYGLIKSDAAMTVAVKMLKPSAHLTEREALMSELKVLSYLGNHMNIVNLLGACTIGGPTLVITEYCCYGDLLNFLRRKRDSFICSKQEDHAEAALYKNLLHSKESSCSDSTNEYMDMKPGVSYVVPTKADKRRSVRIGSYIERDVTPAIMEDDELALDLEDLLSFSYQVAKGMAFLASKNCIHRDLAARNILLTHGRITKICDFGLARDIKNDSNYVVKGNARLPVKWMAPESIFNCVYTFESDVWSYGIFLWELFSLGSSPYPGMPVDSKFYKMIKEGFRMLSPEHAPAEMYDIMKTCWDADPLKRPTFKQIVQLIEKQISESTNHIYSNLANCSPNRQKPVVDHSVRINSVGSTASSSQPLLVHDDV

SMILES | pIC50 (Angiopoietin-1 receptor) | further results
Nc1ncc2ccc(-c3ccc(NC(=O)C4(C(=O)Nc5cc(C(F)(F)F)cc(C(F)(F)F)c5)CC4)cc3)cc2n1 | 7.67 | –
Nc1ncc2ccc(-c3ccc(NC(=O)C4(C(=O)Nc5ccc(OC(F)(F)F)cc5Br)CC4)cc3)cc2n1 | < 6.30 | –
O=C(Nc1cccc(-c2ccc3c(=O)[nH]cnc3c2)c1)Nc1ccc(F)c(F)c1 | 7.78 | –
C=CC(=O)Nc1ccc(-c2ccc(NC(=O)Nc3c(C)cccc3C)cc2)cn1 | < 6.30 | –
O=C(Nc1cccc(-c2ccc3c(=O)[nH]cnc3c2)c1)Nc1cc(C(F)(F)F)cc(C(F)(F)F)c1 | 6.61 | –
Nc1ncc2ccc(-c3ccc(NC(=O)C4(C(=O)Nc5ccc(Br)cc5OC(F)(F)F)CC4)cc3)cc2n1 | < 6.30 | –
O=C(Nc1cccc(-c2ccc3c(=O)[nH]cnc3c2)c1)Nc1ccc(Cl)c(C(F)(F)F)c1 | < 6.30 | –
C=CC(=O)Nc1ccc(-c2ccc(NC(=O)Nc3ccc(F)cc3)cc2)cn1 | 6.98 | –
C=CC(=O)Nc1ccc(-c2ccc(NC(=O)Nc3cccc(Cl)c3)cc2)cn1 | 8.25 | pIC50 [1]: 7.24; pIC50 [2]: 5.97; pIC50 [3]: 6.74; pIC50 [4]: 7.40; pIC50 [5]: 8.06; pIC50 [6]: 6.70; pIC50 [7]: 7.35; pIC50 [8]: 7.60; pIC50 [9]: 7.16; pIC50 [10]: 7.49
C=CC(=O)Nc1ccc(-c2ccc(NC(=O)Nc3ccc(OC(F)(F)F)cc3)cc2)cn1 | 7.22 | –
C=CC(=O)Nc1ccc(-c2ccc(NC(=O)Nc3ccc(Cl)c(C(F)(F)F)c3)cc2)cn1 | 8.01 | –
O=C(Nc1cccc(-c2ccc3c(=O)[nH]cnc3c2)c1)Nc1cccc(C(F)(F)F)c1 | 7.89 | –
Nc1ncc2ccc(-c3ccc(NC(=O)C4(C(=O)Nc5cc(OC(F)(F)F)ccc5Br)CC4)cc3)cc2n1 | 7.83 | –
O=C(Nc1cccc(Cl)c1)Nc1cccc(-c2ccc3c(=O)[nH]cnc3c2)c1 | 7.61 | –
C=CC(=O)Nc1ccc(-c2ccc(NC(=O)Nc3cccc(C(C)C)c3)cc2)cn1 | 8.04 | –
Nc1ncc2ccc(-c3ccc(NC(=O)C4(C(=O)Nc5cc(Br)cc(C(F)(F)F)c5)CC4)cc3)cc2n1 | 7.19 | –
C=CC(=O)Nc1ccc(-c2ccc(NC(=O)Nc3ccc(C(C)(C)C)cc3)cc2)cn1 | 7.67 | –
C=CC(=O)Nc1ccc(-c2ccc(NC(=O)Nc3ccccc3Cl)cc2)cn1 | 8.10 | –
Nc1ncc2ccc(-c3ccc(NC(=O)C4(C(=O)Nc5cc(Br)ccc5OC(F)(F)F)CC4)cc3)cc2n1 | < 6.30 | –
Nc1ncc2ccc(-c3ccc(NC(=O)C4(C(=O)Nc5ccc6c(c5)OCO6)CC4)cc3)cc2n1 | 6.36 | pIC50 [11]: < 6.30; pIC50 (EA.hy 926): 4.53; pIC50 (Ephrin type-B receptor 4): < 6.30
Nc1ncc2ccc(-c3ccc(NC(=O)C4(C(=O)Nc5ccc(Cl)cc5Cl)CC4)cc3)cc2n1 | 7.26 | –
Nc1ncc2ccc(-c3ccc(NC(=O)C4(C(=O)Nc5ccc(Cl)c(Cl)c5)CC4)cc3)cc2n1 | < 6.30 | –
C=CC(=O)Nc1ccc(-c2ccc(NC(=O)Nc3cccc(C(F)(F)F)c3)cc2)cn1 | 8.44 | –
C=CC(=O)Nc1ccc(-c2ccc(NC(=O)Nc3ccc(C)c(Cl)c3)cc2)cn1 | 7.85 | –
C=CC(=O)Nc1ccc(-c2ccc(NC(=O)Nc3cccc(F)c3)cc2)cn1 | 7.04 | –
Nc1ncc2ccc(-c3ccc(NC(=O)C4(C(=O)Nc5ccc(OCCCN6CCOCC6)c(F)c5)CC4)cc3)cc2n1 | < 6.30 | pIC50 [11]: < 6.30; pIC50 (EA.hy 926): 4.49; pIC50 (Ephrin type-B receptor 4): < 6.30
Nc1ncc2ccc(-c3ccc(NC(=O)C4(C(=O)Nc5ccc(F)c(F)c5)CC4)cc3)cc2n1 | 7.84 | –
